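Test compounds were applied to cells in 96-well plates for 48 hours at 5 doses. GI50 marks 50% less growth.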 Calls of active or inactive are those of the source. Cut-off read from the data, not from the text of the source: active = GI50 up to about 1.1 µM and inactive = higher.
Tests used:
Test in all cases: NCI-60 cell line screen, 48 h
MDA-MB-435 = test system: MDA-MB-435
MDA-N = test system: MDA-N
Hs-578T = test system: Hs-578T
786-0 = test system: 786-0
NCI/ADR-RES = test system: NCI/ADR-RES
MCF7 = test system: MCF7
TK-10 = test system: TK-10
NCI-H226 = test system: NCI-H226
ACHN = test system: ACHN
COLO 205 = test system: COLO 205
NCI-H23 = test system: NCI-H23
A498 = test system: A498
OVCAR-5 = test system: OVCAR-5
LOX IMVI = test system: LOX IMVI
UACC-62 = test system: UACC-62
A549 = test system: A549
T47D = test system: T47D
IGROV-1 = test system: IGROV-1
OVCAR-3 = test system: OVCAR-3
UACC-257 = test system: UACC-257

SMILES | GI50 (MDA-MB-435) | GI50 (MDA-N) | GI50 (Hs-578T) | GI50 (786-0) | GI50 (NCI/ADR-RES) | GI50 (MCF7) | GI50 (TK-10) | GI50 (NCI-H226) | GI50 (ACHN) | GI50 (COLO 205) | GI50 (NCI-H23) | GI50 (A498) | GI50 (OVCAR-5) | GI50 (LOX IMVI) | GI50 (UACC-62) | GI50 (A549) | GI50 (T47D) | GI50 (IGROV-1) | GI50 (OVCAR-3) | GI50 (UACC-257)
COc1ccc(/C=C/c2ccnc3ccccc23)cc1 | 17.1 µM (inactive) | 16.6 µM (inactive) | 22.6 µM (inactive) | 16.8 µM (inactive) | 14.2 µM (inactive) | 15.6 µM (inactive) | 16.2 µM (inactive) | 21.9 µM (inactive) | 13.9 µM (inactive) | 16.8 µM (inactive) | 12.7 µM (inactive) | 14.1 µM (inactive) | 21.4 µM (inactive) | 16.5 µM (inactive) | 15.7 µM (inactive) | 15.4 µM (inactive) | 4.9 µM (inactive) | 17.3 µM (inactive) | 13.4 µM (inactive) | 15.3 µM (inactive)
COc1ccc2c(c1)-c1nn(CCN(C)C)c3ccc(C(=O)NCCCN(C)CCCNC(=O)c4ccc5c6c(c7cc(OC)ccc7nc46)NN5CCN(C)C)c(c13)N2 | 0.0401 µM (active) | 0.0361 µM (active) | 0.201 µM (active) | 0.0313 µM (active) | 1.7 µM (inactive) | 0.0202 µM (active) | 0.102 µM (active) | 0.155 µM (active) | 0.0607 µM (active) | 0.0169 µM (active) | 0.0344 µM (active) | 0.0859 µM (active) | 0.126 µM (active) | 0.0192 µM (active) | 0.0692 µM (active) | 0.0136 µM (active) | 0.158 µM (active) | 0.0215 µM (active) | 0.0933 µM (active) | 0.0702 µM (active)
CCOP(=O)(CCC(O)CNc1nc(N)nc(Cl)c1/N=N/c1ccc(Cl)cc1)OCC (stereo not given) | 13.2 µM (inactive) | 12.4 µM (inactive) | 5.58 µM (inactive) | 7.93 µM (inactive) | 11.5 µM (inactive) | 11.5 µM (inactive) | 14.8 µM (inactive) | 16.6 µM (inactive) | 7 µM (inactive) | 12.8 µM (inactive) | 17 µM (inactive) | 10.1 µM (inactive) | 17.6 µM (inactive) | 8.67 µM (inactive) | 13 µM (inactive) | 14.5 µM (inactive) | 16.9 µM (inactive) | 15.2 µM (inactive) | 10.7 µM (inactive) | 13.6 µM (inactive)
COc1ccc2c(c1)[C@@H](NC(C)=O)CCc1cc(OC)c(OC)c(OC)c1-2 | 0.0132 µM (active) | 0.0128 µM (active) | 0.0169 µM (active) | 0.019 µM (active) | 0.0198 µM (active) | 0.0463 µM (active) | 2.54 µM (inactive) | 0.0891 µM (active) | 0.0179 µM (active) | 0.0135 µM (active) | 0.0143 µM (active) | 0.0143 µM (active) | 1.5 µM (inactive) | 0.018 µM (active) | 0.0154 µM (active) | 0.0176 µM (active) | > 100 µM (inactive) | 0.0173 µM (active) | 0.0144 µM (active) | 0.108 µM (active)
O=C1C=CC(=O)C1(Br)Br | 13.4 µM (inactive) | 11.5 µM (inactive) | 17.9 µM (inactive) | 9.18 µM (inactive) | 20.7 µM (inactive) | 11 µM (inactive) | 2.67 µM (inactive) | 19 µM (inactive) | 6.75 µM (inactive) | 10 µM (inactive) | 15.5 µM (inactive) | 13.2 µM (inactive) | 10.7 µM (inactive) | 12.1 µM (inactive) | 10.8 µM (inactive) | 13.8 µM (inactive) | 14.8 µM (inactive) | 5.01 µM (inactive) | 12.9 µM (inactive) | 16.1 µM (inactive)
O=C1Nc2ccccc2/C1=N/Nc1nc(-c2cccc([N+](=O)[O-])c2)cs1 | 34.4 µM (inactive) | 31.1 µM (inactive) | 20.1 µM (inactive) | 16.3 µM (inactive) | 15.3 µM (inactive) | 23.9 µM (inactive) | 19 µM (inactive) | 19.2 µM (inactive) | 31.4 µM (inactive) | 27.1 µM (inactive) | 36.4 µM (inactive) | 21.8 µM (inactive) | > 100 µM (inactive) | 20.7 µM (inactive) | 26.7 µM (inactive) | 20.1 µM (inactive) | 27.3 µM (inactive) | 21.6 µM (inactive) | 34.8 µM (inactive) | 19.3 µM (inactive)
O=[N+]([O-])c1ccc2c(c1)c(S(=O)(=O)O)cc1nonc12 | > 100 µM (inactive) | > 100 µM (inactive) | > 100 µM (inactive) | > 100 µM (inactive) | > 100 µM (inactive) | > 100 µM (inactive) | > 100 µM (inactive) | > 100 µM (inactive) | > 100 µM (inactive) | > 100 µM (inactive) | > 100 µM (inactive) | > 100 µM (inactive) | > 100 µM (inactive) | > 100 µM (inactive) | > 100 µM (inactive) | > 100 µM (inactive) | > 100 µM (inactive) | > 100 µM (inactive) | > 100 µM (inactive) | > 100 µM (inactive)
COc1ccc(-c2cc(=O)c3c(O)cc(O)cc3o2)cc1OC | > 100 µM (inactive) | > 100 µM (inactive) | 11.5 µM (inactive) | 68.9 µM (inactive) | 56.8 µM (inactive) | > 100 µM (inactive) | > 100 µM (inactive) | > 100 µM (inactive) | 35.5 µM (inactive) | > 100 µM (inactive) | > 100 µM (inactive) | 4.57 µM (inactive) | > 100 µM (inactive) | 61.8 µM (inactive) | 61.4 µM (inactive) | > 100 µM (inactive) | 71.9 µM (inactive) | 92 µM (inactive) | 46 µM (inactive) | > 100 µM (inactive)
O=c1c(C(c2ccccn2)c2c(O)oc3cc(O)ccc3c2=O)c(O)oc2cc(O)ccc12 | > 100 µM (inactive) | > 100 µM (inactive) | > 100 µM (inactive) | > 100 µM (inactive) | > 100 µM (inactive) | > 100 µM (inactive) | > 100 µM (inactive) | > 100 µM (inactive) | > 100 µM (inactive) | > 100 µM (inactive) | > 100 µM (inactive) | > 100 µM (inactive) | > 100 µM (inactive) | > 100 µM (inactive) | > 100 µM (inactive) | > 100 µM (inactive) | > 100 µM (inactive) | > 100 µM (inactive) | > 100 µM (inactive) | > 100 µM (inactive)
CS(=O)(=O)OCCCCOS(C)(=O)=O [BUSULFAN] | > 1000 µM (inactive) | 209 µM (inactive) | > 250 µM (inactive) | 228 µM (inactive) | 217 µM (inactive) | 213 µM (inactive) | > 250 µM (inactive) | 237 µM (inactive) | 172 µM (inactive) | 222 µM (inactive) | 230 µM (inactive) | 233 µM (inactive) | > 250 µM (inactive) | 221 µM (inactive) | 187 µM (inactive) | 208 µM (inactive) | > 250 µM (inactive) | > 212 µM (inactive) | > 250 µM (inactive) | 183 µM (inactive)
